Data from ChEMBL document CHEMBL1201862, “PubChem BioAssay data set” (2004).
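Briefly, cells in 96-well plates were exposed to five compound concentrations for 48 h, and endpoints were estimated by linear interpolation. The concentration for 50% growth inhibition is given as GI50.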 Active and inactive are the calls of the source. No stated cut-off is given here; in the data, active = GI50 up to about 1.1 µM and inactive = higher.

Legend:
Experiment in all cases: DTP human tumour cell line panel, 48 h
[1] = system: ACHN
[2] = system: CAKI-1
[3] = system: NCI-H226
[4] = system: Hs-578T
[5] = system: UACC-62
[6] = system: NCI/ADR-RES
[7] = system: MCF7
[8] = system: MDA-MB-435
[9] = system: OVCAR-3
[10] = system: OVCAR-4
[11] = system: HCC 2998
[12] = system: U-251
[13] = system: HOP-92
[14] = system: HL-60
[15] = system: SN12C
[16] = system: NCI-H23
[17] = system: RPMI-8226
[18] = system: UO-31
[19] = system: SNB-19
[20] = system: CCRF-CEM
[21] = system: HCT-15
[22] = system: NCI-H522
[23] = system: SF-295
[24] = system: HOP-62
[25] = system: T47D
[26] = system: Malme-3M
[27] = system: PC-3
[28] = system: SK-MEL-28
[29] = system: HT-29
[30] = system: OVCAR-5
[31] = system: COLO 205
[32] = system: MDA-N
[33] = system: NCI-H460
[34] = system: RXF 393
[35] = system: SK-MEL-2
[36] = system: SF-539
[37] = system: SK-MEL-5
[38] = system: HCT-116
[39] = system: BT-549
[40] = system: DU-145
[41] = system: K562
[42] = system: OVCAR-8
[43] = system: IGROV-1
[44] = system: MOLT-4
[45] = system: EKVX
[46] = system: TK-10
[47] = system: LOX IMVI
[48] = system: A498
[49] = system: KM12
[50] = system: SW-620
[51] = system: UACC-257
[52] = system: M14
[53] = system: SF-268
[54] = system: 786-0
[55] = system: MDA-MB-231
[56] = system: SNB-75
[57] = system: SR
[58] = system: A549
[59] = system: SK-OV-3

COc1ccc2c(c1)CC[C@@H]1[C@@H]2CC[C@]2(C)/C(=N/OCCN3CCCC3)CC[C@@H]12
GI50 [1]: 4.45 µM (inactive) | GI50 [2]: 1.75 µM (inactive) | GI50 [3]: 1.95 µM (inactive) | GI50 [4]: 2.65 µM (inactive) | GI50 [5]: 1.82 µM (inactive) | GI50 [6]: 8.61 µM (inactive) | GI50 [7]: 3.03 µM (inactive) | GI50 [8]: 0.91 µM (active) | GI50 [9]: 5.82 µM (inactive) | GI50 [10]: 12 µM (inactive) | GI50 [11]: 1.85 µM (inactive) | GI50 [12]: 3.46 µM (inactive) | GI50 [13]: 2.49 µM (inactive) | GI50 [14]: 1.21 µM (inactive) | GI50 [15]: 6.52 µM (inactive) | GI50 [16]: 5.94 µM (inactive) | GI50 [17]: 1.5 µM (inactive) | GI50 [18]: 2.81 µM (inactive) | GI50 [19]: 11.1 µM (inactive) | GI50 [20]: 1.49 µM (inactive) | GI50 [21]: 1.25 µM | GI50 [22]: 3 µM (inactive) | GI50 [23]: 2.35 µM (inactive) | GI50 [24]: 1.98 µM (inactive) | GI50 [25]: 3.21 µM (inactive) | GI50 [26]: 1.63 µM (inactive) | GI50 [27]: 3.85 µM (inactive) | GI50 [28]: 1.39 µM (inactive) | GI50 [29]: 0.766 µM (active) | GI50 [30]: 2.79 µM (inactive) | GI50 [31]: 1.67 µM (inactive) | GI50 [32]: 1.98 µM (inactive) | GI50 [33]: 1.5 µM (inactive) | GI50 [34]: 1.92 µM (inactive) | GI50 [35]: 1.82 µM (inactive) | GI50 [36]: 1.9 µM (inactive) | GI50 [37]: 1.9 µM (inactive) | GI50 [38]: 1.78 µM (inactive) | GI50 [39]: 8.07 µM (inactive) | GI50 [40]: 3.94 µM (inactive) | GI50 [41]: 0.76 µM (active) | GI50 [42]: 3.81 µM (inactive) | GI50 [43]: 4.51 µM (inactive) | GI50 [44]: 1.93 µM (inactive) | GI50 [45]: 4.57 µM (inactive) | GI50 [46]: 6.47 µM (inactive) | GI50 [47]: 1.57 µM (inactive) | GI50 [48]: 3.8 µM (inactive) | GI50 [49]: 2.42 µM (inactive) | GI50 [50]: 1.95 µM (inactive) | GI50 [51]: 1.75 µM (inactive) | GI50 [52]: 1.27 µM (inactive) | GI50 [53]: 4.07 µM (inactive) | GI50 [54]: 1.75 µM (inactive) | GI50 [55]: 3.83 µM (inactive) | GI50 [56]: 3 µM (inactive) | GI50 [57]: 1.97 µM (inactive) | GI50 [58]: 2.78 µM (inactive)

O=S(=O)(O)c1ccc(Nc2ccnc3ccccc23)cc1
GI50 [1]: > 100 µM (inactive) | GI50 [2]: > 100 µM (inactive) | GI50 [3]: > 100 µM (inactive) | GI50 [4]: > 100 µM (inactive) | GI50 [5]: > 100 µM (inactive) | GI50 [6]: > 100 µM (inactive) | GI50 [7]: > 100 µM (inactive) | GI50 [8]: > 100 µM (inactive) | GI50 [10]: > 100 µM (inactive) | GI50 [11]: > 100 µM (inactive) | GI50 [12]: > 100 µM (inactive) | GI50 [13]: > 100 µM (inactive) | GI50 [14]: > 100 µM (inactive) | GI50 [15]: > 100 µM (inactive) | GI50 [16]: > 100 µM (inactive) | GI50 [17]: > 100 µM (inactive) | GI50 [18]: > 100 µM (inactive) | GI50 [19]: > 100 µM (inactive) | GI50 [20]: > 100 µM (inactive) | GI50 [21]: > 100 µM | GI50 [22]: > 100 µM (inactive) | GI50 [23]: > 100 µM (inactive) | GI50 [24]: > 100 µM (inactive) | GI50 [25]: > 100 µM (inactive) | GI50 [26]: > 100 µM (inactive) | GI50 [27]: > 100 µM (inactive) | GI50 [28]: > 100 µM (inactive) | GI50 [29]: > 100 µM (inactive) | GI50 [30]: > 100 µM (inactive) | GI50 [31]: > 100 µM (inactive) | GI50 [32]: > 100 µM (inactive) | GI50 [34]: > 100 µM (inactive) | GI50 [35]: > 100 µM (inactive) | GI50 [36]: > 100 µM (inactive) | GI50 [37]: > 100 µM (inactive) | GI50 [38]: > 100 µM (inactive) | GI50 [39]: > 100 µM (inactive) | GI50 [40]: > 100 µM (inactive) | GI50 [41]: > 100 µM (inactive) | GI50 [42]: > 100 µM (inactive) | GI50 [43]: > 100 µM (inactive) | GI50 [59]: > 100 µM (inactive) | GI50 [44]: > 100 µM (inactive) | GI50 [45]: > 100 µM (inactive) | GI50 [46]: > 100 µM (inactive) | GI50 [47]: > 100 µM (inactive) | GI50 [48]: > 100 µM (inactive) | GI50 [49]: > 100 µM (inactive) | GI50 [50]: > 100 µM (inactive) | GI50 [51]: > 100 µM (inactive) | GI50 [52]: > 100 µM (inactive) | GI50 [53]: > 100 µM (inactive) | GI50 [54]: > 100 µM (inactive) | GI50 [55]: > 100 µM (inactive) | GI50 [56]: > 100 µM (inactive) | GI50 [57]: > 100 µM (inactive) | GI50 [58]: > 100 µM (inactive)
